Source: patent publication US20250114430A1, “MODIFIED PEPTIDOMIMETICS AND METHODS OF USE” (The University of North Carolina at Chapel Hill, priority 2021, published 2025)
Entries after “also recorded” stand apart in the source; their conditions may differ. No end group written: not given here.

How the values were obtained:
P. aeruginosa [1] = test: P. aeruginosa growth in the presence of peptide; assay type: cell-based; conditions: in vitro
αSMA = test: TGFβ-induced myofibroblast differentiation of CCL-210 fibroblasts (αSMA); assay type: cell-based, human; conditions: CCL-210, 7 days 10 ng/mL TGFβ, then ELD607 for 48 hours
Procedure: FIG. 36A-36C show ELD607 reduces TGFβ-induced myofibroblast formation. FIG. 36A is a schematic showing fibroblast to myofibroblast formation and αSMA deposition. […] Data are mean data from Western blots in normal fibroblasts.
In vitro Methods: Fibroblasts were exposed to 10 nM TFGβ for 3-7 days as indicated. […] Fibroblasts were then fixed in paraformaldehyde, stained with primary a smooth muscle actin (αSMA) antibody, and imaged by confocal microscopy. Myofibroblasts were exposed to ELD607 without any TGFβ pre-treatment. In some cases, Western blotting was used to probe for αSMA.
ELD607 reverses myofibroblast differentiation. Increased alpha smooth muscle actin (αSMA) deposition is a hallmark of damaged IPF lungs, and is a common marker for identifying when fibroblasts turn into myofibroblasts—key drivers of fibrosis, and it is generally considered that less αSMA is beneficial (FIG. 36A). It was then determined whether ELD607 alters myofibroblast formation. The human lung fibroblast cell line CCL-210 was treated for 7 days with 10 ng/mL TGFβ to induce myofibroblast differentiation.

Orai1 = Orai1 (Homo sapiens, UniProt Q96D31); test: Orai1 immunocytochemistry on immune cells of ARDS/bacterial pneumonia patients; assay type: cell-based; set-up: immune cells of ARDS/bacterial pneumonia patients; endogenous in cells; host or cells: immune cells from tracheal aspirates of ARDS/bacterial pneumonia patients; conditions: paired patient samples
Excerpt: We then performed Orai1 immunocytochemistry on paired samples of immune cells of ARDS/bacterial pneumonia patients. Cells derived from each patient were exposed to either vehicle, ELD607, or scrambled ELD607 (FIG. 27, panels D and E).

in vitro = in vitro ADME; conditions: human, serum
Procedure: We injected mice intraperitoneally with E. coli LPS, followed by 0.5 mg/kg ELD607 injected intravenously 1 h later.

[2] = system: Primary human bronchial epithelial cultures; test: Cytotoxicity and transepithelial resistance in primary human bronchial epithelial cultures; assay type: cell-based; conditions: 1 mM, 24 h
Procedure: (§1) FIG. 28 panels C and D show cell viability per arbitrary units (left) and transepithelial resistance (right) of vehicle vs. ELD607 before and after treatment.
(§2) ELD607 is non-toxic in vitro and in vivo. To investigate potential cytotoxic effects of ELD607, […] were exposed to 100 μM ELD607 for 24 h. Cytotoxicity was assessed by exposing cells to calcein to label live cells and fluorescence read by multi-plate reader. […] Primary human bronchial epithelial cultures were exposed to 1 mM ELD607 or vehicle control (saline) for 24 h. Cytotoxicity was assessed by confocal microscopy using calcein and propidium iodide to label live and dead cells respectively. […] Transepithelial resistance was also measured before and after treatment as a measure of epithelial integrity.

P. aeruginosa [3] = test: Murine model of P. aeruginosa bacterial pneumonia; assay type: in vivo, mice
Procedure: FIGS. 15A-15D show (FIG. 15A) a schematic of a murine model of P. aeruginosa (top left panel), and bar graphs of (FIG. 15B) BAL monocytes, (FIG. 15C) BAL neutrophils, and (FIG. 15D) bacterial counts in whole lung at 24 hours quantified following experiments according to the mouse model as schematized and conditions as noted on the x-axis.
FIGS. 16A-16G show data from further P. aeruginosa infection experiments. […] Increased inflammation is seen in infection as indicated in the alveolar/gas exchange regions of the lungs which show alveolar damage and thickening that prevent gas exchange. ELD607 treatment normalized alveoli histology similar to naïve lung conditions.
Mice were exposed to vehicle or P. aeruginosa±ELD607 and BAL was obtained and stained with an anti-Orai1 antibody, fluorescent 2° and DAPI. […] FIG. 16G panels B and C show plots showing fluorescence intensities of Orai1 in macrophages and neutrophils, respectively. ***p<0.001 different as indicated. ND=no detectable neutrophils in these groups.
Further in vivo experiments were performed. […] Bronchoalveolar lavage (BAL) and organ collection was performed 24 hours following treatment with peptide (FIG. 15A). […] Moreover, 24 h after infection, about 10^9 CFUs could be detected in murine whole lung homogenate. However, ELD607 caused an ˜5 log10 reduction in lung bacteria (FIG. 15D).
Mice were exposed to vehicle or P. aeruginosa±ELD607 and BAL was obtained and stained with an anti-Orai1 antibody, fluorescent 2° and DAPI. […] FIG. 16G panels B and C show plots showing fluorescent intensities of Orai1 in macrophages and neutrophils, respectively.
To examine Orai1 levels, BAL was then obtained from P. aeruginosa-infected mice, immediately cytospun, fixed in PFA and stained with an antibody against Orai1.

[4] = system: immune cells from tracheal aspirates of ARDS/bacterial pneumonia patients; test: Thapsigargin-induced cytosolic Ca^2+ in immune cells from ARDS/bacterial pneumonia patients; assay type: cell-based, human; conditions: Fluo-4, 1 h exposure
Procedure: We next obtained tracheal aspirates from intubated ARDS/bacterial pneumonia patients. We immediately isolated immune cells from these samples and simultaneously loaded them with the Ca^2+ dye Fluo-4 and exposed them to vehicle, ELD607 or scrambled peptide for 1 h.

HEK293 T cells = test: Cytotoxicity in HEK293 T cells (calcein); assay type: cell-based; conditions: 100 μM, 24 h
Procedure: as §1, §2

[5] = system: SARS-CoV-2 S1 pseudovirus; assay type: cell-based
[6] = target: T1, Orai1 extracellular peptide 1 (OP1) (Homo sapiens, UniProt Q96D31); test: Dynamic light scattering binding to Orai1 extracellular loop peptide OP1; conditions: DLS, Orai1 amino acids 106-119
T1 construct: corresponding to amino acids 106-119 ([…]
Excerpt: Endogenous Orai1/store operated Ca^2+ influx have been extensively studied in HEK293T cells, so this cell type was used to understand ELD607-Orai1 interactions. […] Thapsigargin is a SERCA pump inhibitor that prevents uptake of cytosolic Ca^2+ into the endoplasmic reticulum. Thapsigargin is commonly used to stimulate Orai1/store operated Ca^2+ influx. […] Dynamic light scattering (DLS) was used to evaluate binding of ELD607 to peptides of Orai1 extracellular loops. […] Thus, it was concluded that ELD607 interacts with Orai1.

[7] = 10^7 CFU, 0.51 mg/kg intranasal

Orai1, sequence (Q96D31 whole entry): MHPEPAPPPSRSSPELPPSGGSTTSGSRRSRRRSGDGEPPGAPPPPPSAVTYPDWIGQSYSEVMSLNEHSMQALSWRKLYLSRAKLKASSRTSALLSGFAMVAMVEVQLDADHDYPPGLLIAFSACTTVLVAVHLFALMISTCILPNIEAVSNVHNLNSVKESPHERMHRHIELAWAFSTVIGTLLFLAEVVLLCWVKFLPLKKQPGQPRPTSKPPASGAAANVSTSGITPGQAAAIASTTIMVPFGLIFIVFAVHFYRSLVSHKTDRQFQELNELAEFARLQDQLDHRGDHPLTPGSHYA

Sequence: VHDIVNMLIRG [ELD607, VHDIVNMLIRG]
- P. aeruginosa growth (P. aeruginosa [1]): no effect on P. aeruginosa growth
- αSMA levels (western blot and immunofluorescence) (αSMA): significantly reduced
- Orai1 levels (Orai1): significant reduction in Orai1 levels
- remaining at 4 h (in vitro): 100%
- cytotoxicity (calcein and propidium iodide) [2]: not significantly different to vehicle control
- transepithelial resistance ([2]; before and after treatment): No differences were found
- BAL monocytes (P. aeruginosa [3]; 10^7 CFU intratracheally, 0.51 mg/kg peptide intranasal 1 hour later, 24 hours): significantly retained monocyte levels
- BAL lactate dehydrogenase (LDH) (P. aeruginosa [3]; [7]): significantly reduced
- BAL neutrophil elastase (P. aeruginosa [3]; [7]): significantly reduced
- BAL total protein (P. aeruginosa [3]; [7]): significantly reduced
- BAL neutrophils (P. aeruginosa [3]; 10^7 CFU, 0.51 mg/kg intranasal, 24 hours): reduced neutrophil levels
- survival (P. aeruginosa [3]; 10^9 CFU/ml P. aeruginosa, 48 hours post-infection): significantly improved survival
- bacterial counts in the spleen (P. aeruginosa [3]; 24 hours post ELD607 treatment): reduced bacterial counts in the spleen
- BAL neutrophils, delayed treatment (P. aeruginosa [3]; ELD607 added 24 hours after infection): reduced
- BAL Macrophage Inflammatory Protein 2 (MIP-2) (P. aeruginosa [3]; P. aeruginosa infected mice): reduced
- BAL interleukin-17 (IL-17) (P. aeruginosa [3]; P. aeruginosa infected mice): reduced
- BAL keratinocytes-derived chemokine (KC) (P. aeruginosa [3]; P. aeruginosa infected mice): reduced
- IL-6 (P. aeruginosa [3]; P. aeruginosa infected mice): reduced
- interleukin-1β (IL-1β) (P. aeruginosa [3]; P. aeruginosa infected mice): reduced
- lung histology (P. aeruginosa [3]; P. aeruginosa infected mice): normalization of alveoli
- tumor necrosis factor-α (TNF-α) (P. aeruginosa [3]; P. aeruginosa infected mice): reduced
- weight loss (P. aeruginosa [3]; intranasal 10^7 CFU/ml P. aeruginosa, 24 hours): prevented the total weight loss
- Orai1 levels in BAL cells (anti-Orai1 staining) (P. aeruginosa [3]; naïve and P. aeruginosa-infected mice): reduces Orai1 in murine BAL macrophages; also recorded: significant decrease in Orai1 levels
- reduction in lung bacteria (P. aeruginosa [3]; whole lung homogenate, 24 h after infection): ~5 log10
- thapsigargin elevation of cytosolic Ca^2+ [4]: not after exposure to ELD607
- cell viability (calcein) (HEK293 T cells): not significantly different to vehicle control
- pseudovirus infection (% DsRed-positive cells) [5]: significantly reduced infection
- interaction with OP1 (Z-average increase) [6]: significant interactions
